# Reference: paper PMC8333425, “Discovery of a dual Ras and ARF6 inhibitor from a GPCR endocytosis screen” (Nature Communications, 2021)
# Several values for one entry are separate records, joined by “and”; a condition that tells them apart may be missing. Identical values can stand only once.
# Key:
# [1] = system: ERK1/2 activation by β2AR; experiment: Western blot of β2AR-mediated ERK1/2 phosphorylation; assay type: cell-based, human; details: for p-ERK1/2 over ERK1/2, normalized to basal (0 min), b2AR: Comp 21 50 μM, individual experiments
# Procedure: (§1) HEK293SL cells (10^5 cells per well) were seeded in a poly-L-lysine-coated six-well plate and transiently transfected with 3 μg Flag-AT1R, HA-B2R or HA-β2AR and/or 500 ng Flag-MEK1-WT, Flag-MEK1-DD, Flag-BRAF-WT, Flag-BRAF-V600E, Flag-K-Ras-WT, Flag-K-Ras-G12V, HA-ARF6-WT, or HA-ARF6-T27N. Gαq/11 KO and βarr1/2 KO cells were seeded onto 100 mm dishes at a density of 10^6 cells per dish. Next day, cells were transfected with 3 μg AT1R alone or along with 500 ng of β-arrestin2 using PEI. After 18 h of transfection, cells were detached and re-seeded onto poly-L-lysine coated 12-well plates (~1.5–2 × 10^5cells/well) for subsequent experiments. Forty-eight hours post transfection, in a 37 °C water bath, cells were serum-starved for 30 min, pretreated with DMSO (0.1%) or compound 21/Rasarfin (50 µM or at indicated concentrations) for 30 min, then stimulated or not with the indicated ligand [AngII (1 µM), BK (1 µM), Iso (10 µM) or EGF (100 ng/ml)] at indicated times. Cells were put on ice, washed with PBS and solubilized in 2x laemmli buffer (250 mM Tris–HCl pH 6.8, 2% SDS (w/v), 10% glycerol (v/v), 0.01% bromophenol blue (w/v) and 5% β-mercaptoethanol (v/v)) by heating at 65 °C for 15 min. Lysates were resolved on 10 or 14% SDS-PAGE, transferred to nitrocellulose membranes and immunoblotted for p-ERK1/2, ERK1/2, p-Akt, Akt, HA, Myc, β-actin or FLAG. ImageLab 5.2 software was used to quantify the digital blots as fold of the phosphorylated protein over total protein, which were then normalized as indicated in the figure legends. Uncropped immunoblots are provided in the Source Data file.
# [2] = system: ERK1/2 activation by AT1R; experiment: Western blot of AT1R-mediated ERK1/2 activation in β-arrestin1/2 KO cells; assay type: cell-based, human; details: for ERK1/2 activation by AT1R in β-arrestin1/2 KO cells: 50 μM
# Procedure: as §1
# Gαq = target: T1, Gαq (Homo sapiens, UniProt P50148); experiment: Gαq BRET sensor, AT1R-mediated; assay type: cell-based
# T1 construct: expressed in transfected cells; host or cells: HEK293SL
# Procedure: HEK293SL cells were seeded at a density of 7.5 × 10^5 cells per 100-mm dish and 24 h later, transiently transfected as such. For receptor internalization experiments, cells were transfected with 0.12 μg AT1R-RlucII, B2R-RlucII, or β2AR-RlucII and 0.48 μg of either rGFP-CAAX (to assess removal from the PM) or rGFP-FYVE (to assess accumulation in the endosomes). For β-arrestin recruitment assays, cells were transfected with 0.48 μg of receptor-YFP along with 0.12 μg of β-arrestin-RlucII. For β-arrestin/AP-2 binding experiments, cells were transfected with 1 μg Flag-AT1R, 1 μg β2-Adaptin-YFP, and 0.12 μg β-arrestin2-RlucII. For G protein activation, cells were transfected with 3 μg of sp-Flag-AT1R along with either 4.5 μg of the Gαq-polycistronic BRET sensor or 0.24 μg of the Gαi3-RlucII and 0.6 μg of GFP10-Gγ2 and Gβ1 sensors or 0.12 μg PKN-RBD-RlucII and 0.48 μg of rGFP-CAAX. For PKC activation, cells were transfected with 3 μg of sp-Flag-AT1R and 0.18 μg of the PKC sensor. For GTPase activation experiments, cells were transfected with 1 μg Flag-AT1R, 0.48 μg of rGFP-CAAX, and either 0.12 μg of GGA3-PBD-RlucII, PAK-CRIB-RlucII or Raf-RBD-RlucII. For biosensor validation experiments, cells were additionally transfected with 500 ng Flag-K-Ras-WT, Flag-K-Ras-G12V, Flag-K-Ras-SOS-CAAX, HA-ARF6-WT, HA-ARF6-T27N, Myc-Rac1-WT, Myc-Rac1-Q61L or Myc-Rac1-T17N. For PI3K/Akt activation experiments, cells were transfected with 0.48 μg of rGFP-CAAX and 0.12 μg of Akt (PH)-RlucII. After 18 h of transfection, the media was replaced and cells were divided for subsequent experiments. Cells were detached and seeded onto poly-L-ornithine-coated 96-well flat white bottom plates (BrandTech Scientific) at a density of 2.5 × 10^4 cells per well in media. […] For kinetics of β-arrestin recruitment or β-arrestin binding to receptor and AP-2 experiments, cells were serum starved for 30 min, pretreated with 21 (50 µM) or Barbadin (100 µM) for 30 min, stimulated with 100 nM AngII or 1 µM BK and BRET signals were monitored at indicated times using a Victor X Light plate reader (PerkinElmer). […] The BRET ratio was determined by calculating the ratio of the light emitted by YFP over the light emitted by the RlucII. […] For the kinetics of GTPase and PI3K/Akt activation, cells were serum starved, pretreated with 21 (50 µM) or Wortmannin (200 nM) for 30 min, stimulated with ligand (100 nM AngII or 100 ng/ml EGF) and BRET signals were monitored at indicated times. […] BRET signals were monitored using a Synergy2 (BioTek) microplate reader and coelenterazine 400a (final concentrations of 5 µM) added 3–5 min prior to BRET measurements. […] The BRET ratio was determined by calculating the ratio of the light emitted by rGFP/GFP10 over the light emitted by the RlucII.
# T1 sequence (P50148 whole entry): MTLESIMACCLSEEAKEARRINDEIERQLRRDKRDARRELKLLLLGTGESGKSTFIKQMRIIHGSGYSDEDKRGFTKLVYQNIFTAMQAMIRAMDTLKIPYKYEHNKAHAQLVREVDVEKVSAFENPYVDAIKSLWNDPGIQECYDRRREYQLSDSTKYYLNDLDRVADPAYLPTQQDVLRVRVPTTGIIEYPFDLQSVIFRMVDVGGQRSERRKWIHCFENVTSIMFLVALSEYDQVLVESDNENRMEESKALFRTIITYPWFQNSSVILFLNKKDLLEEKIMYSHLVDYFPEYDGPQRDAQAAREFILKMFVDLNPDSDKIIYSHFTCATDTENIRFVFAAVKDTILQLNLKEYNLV
# T1 sequence (P62873 whole entry partner): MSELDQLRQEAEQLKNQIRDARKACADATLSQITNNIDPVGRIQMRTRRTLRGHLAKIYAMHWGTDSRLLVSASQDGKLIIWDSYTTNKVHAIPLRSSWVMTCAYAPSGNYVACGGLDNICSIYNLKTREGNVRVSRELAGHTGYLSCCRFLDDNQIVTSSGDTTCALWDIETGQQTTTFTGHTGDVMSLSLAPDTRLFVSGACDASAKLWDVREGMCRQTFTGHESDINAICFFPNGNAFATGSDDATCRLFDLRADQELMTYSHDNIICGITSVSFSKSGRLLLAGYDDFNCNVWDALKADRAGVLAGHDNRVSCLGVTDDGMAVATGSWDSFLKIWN
# T1 sequence (P63211 2-71 partner limits assumed): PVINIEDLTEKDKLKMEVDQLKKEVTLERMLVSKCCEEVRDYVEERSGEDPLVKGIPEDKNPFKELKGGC
smiles,measurement,setting,value
CC(C)C(=O)N1CCN(c2ccc(NC(=O)c3cc4ccccc4o3)cc2Cl)CC1 [Compound 21],MAPK response promoted by β2AR,[1]; 50 μM,blocked MAPK responses
same,"p-ERK1/2 over ERK1/2, normalized to basal (0 min), b2AR",[1]; time 0 min,1
same,"p-ERK1/2 over ERK1/2, normalized to basal (0 min), b2AR",[1]; time 2 min,1.344 and 1.8469 and 1.974 and 1.462
same,"p-ERK1/2 over ERK1/2, normalized to basal (0 min), b2AR",[1]; time 5 min,1.8675 and 1.745 and 1.249 and 1.487
same,ERK1/2 activation by AT1R in β-arrestin1/2 KO cells,[2],similarly inhibited ERK1/2 activation
same,ERK1/2 activation by AT1R in β-arrestin1/2 KO cells,[2]; listed as Rasarfin,totally blocked
same,ERK1/2 activation relative to time 0 (S_Fig.4a),"[2]; barr1/2 KO cells, Time 0 min",1
same,Mean Diff. DMSO - Comp 21 (Bonferroni's multiple comparisons test),"[2]; barr1/2 KO cells, Time 0 min",0
same,Mean Diff. DMSO - Comp 21 (Bonferroni's multiple comparisons test),"[2]; barr1/2 KO cells, Time 5 min",8.446
same,Mean Diff. DMSO - Comp 21 (Bonferroni's multiple comparisons test),"[2]; barr1/2 KO cells, Time 20 min",10.85
same,"Mean Diff. DMSO vs. compound, Gq (Dunnett's multiple comparisons test)",Gαq,0.009667
same,Gαq engagement by AT1R (BRET sensor),Gαq; 50 μM,lack of inhibitory effects
same,"Gq BRET sensor signal (S_Fig.4b), single experiments",Gαq; listed as Comp 21,0.1945 and 0.171 and 0.2095
